According to patent US20250145665A1, “MACROCYCLIC PEPTIDES USEFUL AS MODULATORS OF TNF ALPHA” (Bristol-Myers Squibb Company, priority 2023, published 2025):
Like-named read-outs stand apart in the source and are kept apart here. Starred links: 1 amine or outer side, 2 acyl side, 3 side chain; linkers in the order of their positions; H or OH if unused. Positions of bridges follow the written chain, without caps; N, C: chain ends. Non-standard residues stand in square brackets, D forms with d. Residues, ends and D or L forms follow the SMILES beside them. *: point of attachment. Bip(4'-NHCO-C6H4-4-CH2COOH) = N[C@@H](Cc1ccc(-c2ccc(NC(=O)c3ccc(CC(=O)O)cc3)cc2)cc1)C(=O)O; X21 = N=C(NCCC[C@@H](N[*:1])C(=O)[*:2])NC[C@H](O)[C@@H](O)[C@@H](O)CO; Bip(4'-NH) = O=C([C@H](Cc1ccc(-c2ccc(N[*:3])cc2)cc1)N[*:1])[*:2]; Indazole3carbonyl(1-CH2COOH) = O=C(O)Cn1nc(C(=O)*)c2ccccc21; Ala(imidazol-2-yl) = N[C@@H](Cc1ncc[nH]1)C(=O)O; dArg(ω-Bn) = N=C(NCCC[C@@H](N)C(=O)O)NCc1ccccc1; Ala(morpholin-4-yl) = N[C@@H](CN1CCOCC1)C(=O)O; Benzoyl(3-OCH2COOH) = O=C(O)COc1cccc(C(=O)*)c1; Bip = N[C@@H](Cc1ccc(-c2ccccc2)cc1)C(=O)O; 2Pal = N[C@@H](Cc1ccccn1)C(=O)O; 2Thi = N[C@@H](Cc1cccs1)C(=O)O; Sar = CNCC(=O)O

Target: TNFα (Homo sapiens, UniProt P01375)
Test: TNF-Induced HEK-Blue Assay
Format: cell-based
[1] = HEK-Blue-CD40L cells, NF-kB-driven secreted alkaline phosphatase reporter, TNFα 0.5 ng/ml, 18 h, read-out: TNF induced HEK-Blue assay IC50 value

TNFα, sequence (P01375 77-233 limits assumed): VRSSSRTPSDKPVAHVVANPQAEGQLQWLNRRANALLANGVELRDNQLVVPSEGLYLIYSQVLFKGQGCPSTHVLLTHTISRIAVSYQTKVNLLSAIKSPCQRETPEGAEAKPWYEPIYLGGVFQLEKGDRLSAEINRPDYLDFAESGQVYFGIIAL

Structure (SMILES) | IC50 [nM] | IC50 [1] [nM]
CC(C)C[C@@H]1NC(=O)[C@H](Cc2cccs2)NC(=O)[C@H](C(C)C)NC(=O)[C@@H]2CCCN2C(=O)[C@H](C(C)C)NC(=O)[C@@H](CCCNC(=N)NC[C@H](O)[C@@H](O)[C@@H](O)CO)NC(=O)[C@H](CC(=O)O)NC(=O)[C@H](Cc2ccccn2)NC(=O)CN(C)C(=O)[C@H](Cc2ccc(-c3ccc(NC(=O)c4nn(CC(=O)O)c5ccccc45)cc3)cc2)NC(=O)[C@H](Cc2ccc(-c3ccccc3)cc2)NC(=O)[C@H](CN2CCOCC2)NC(=O)CSC[C@@H](C(=O)NCC(N)=O)NC1=O [Example 640] ({CH2CO}-[Ala(morpholin-4-yl)][Bip][Bip(4'-NH)](Indazole3carbonyl(1-CH2COOH))[Sar][2Pal]D[X21]VPV[2Thi]LCG-NH2; thioether N-13) | 50 to 200 | –
CC(C)C[C@@H]1NC(=O)[C@H](Cc2ncc[nH]2)NC(=O)[C@H](C(C)C)NC(=O)[C@@H]2CCCN2C(=O)[C@H](C(C)C)NC(=O)[C@@H](CCCNC(=N)NCc2ccccc2)NC(=O)[C@H](CC(=O)O)NC(=O)[C@H](Cc2ccccn2)NC(=O)CN(C)C(=O)[C@H](Cc2ccc(-c3ccc(NC(=O)c4cccc(OCC(=O)O)c4)cc3)cc2)NC(=O)[C@H](Cc2ccc(-c3ccccc3)cc2)NC(=O)[C@H](CN2CCOCC2)NC(=O)CSC[C@@H](C(=O)NCC(N)=O)NC1=O [Example 641] ({CH2CO}-[Ala(morpholin-4-yl)][Bip][Bip(4'-NH)](Benzoyl(3-OCH2COOH))[Sar][2Pal]D[dArg(ω-Bn)]VPV[Ala(imidazol-2-yl)]LCG-NH2; thioether N-13) | – | 50 to 200
CC(C)C[C@@H]1NC(=O)[C@H](Cc2ncc[nH]2)NC(=O)[C@H](C(C)C)NC(=O)[C@@H]2CCCN2C(=O)[C@H](C(C)C)NC(=O)[C@@H](CCCNC(=N)NCc2ccccc2)NC(=O)[C@H](CC(=O)O)NC(=O)[C@H](Cc2ccccn2)NC(=O)CN(C)C(=O)[C@H](Cc2ccc(-c3ccc(NC(=O)c4ccc(CC(=O)O)cc4)cc3)cc2)NC(=O)[C@H](Cc2ccc(-c3ccccc3)cc2)NC(=O)[C@H](CN2CCOCC2)NC(=O)CSC[C@@H](C(=O)NCC(N)=O)NC1=O [Example 642] ({CH2CO}-[Ala(morpholin-4-yl)][Bip][Bip(4'-NHCO-C6H4-4-CH2COOH)][Sar][2Pal]D[dArg(ω-Bn)]VPV[Ala(imidazol-2-yl)]LCG-NH2; thioether N-13) | – | 200 to 2000
